Measurements from patent US6482802B1 (Endowment for Research in Human Biology, Inc., priority 1998, dated 2002).
“And” between values parts separate entries of the source, which are not always exact repeats. Identical values can stand only once. “Also recorded” adds a separate entry of the source.

Tests used:
[1] = system: chorioallantoic membrane (CAM) of chick embryos; assay: CAM assay, VEGF-induced angiogenesis; assay type: in vivo; conditions: for % Positive: VEGF alone 63, water 21
Procedure: Angiogenesis was measured on the CAM by the method of Knighton et al. (Knighton et al., 1977, Br. J. Cancer 35:347-356) essentially as described (Fett et al., 1985, Biochemistry 24:5480-5486). Fertilized chicken eggs were kept at 18° C. for 2 days and then incubated in a humidified environment at 37° C. for 3 days. Albumin was aspirated from the embryos and after 24 hours, a “window” was cut through the shell and covered with clear tape. […] After 48-68 hours at 37° C., the growth of blood vessels was observed microscopically and recorded as either positive or negative. A positive response (i.e., an angiogenic response) has a typical “spokewheel” appearance.

HUVE cells [2] = assay: Angiogenin-induced proliferation of HUVE cells; assay type: cell-based, human
Procedure: HUVE cells were seeded at 4×10^3 cells/cm^2 in attachment factor (Cell Systems Corp.)-coated 35 mm dishes in HE-SFM, and incubated with 1 μg/ml angiogenin in the presence or absence of inhibitors at 37° C. for 48 hr. Cell were detached by trypsinization and cell numbers were determined with a Coulter counter.

[3] = system: PC-3 human prostate tumor cells
From the text: Mice were examined daily by palpation for the first sign of tumor appearance at which time tumor size was estimated twice weekly by caliper measurements (longest perpendicular length and width).

HUVE cells [4] = assay: HUVE cell number with neomycin alone, no angiogenic factor; assay type: cell-based, human; conditions: 48 hrs, 0 μM: 31400 ± 400
Procedure: (§1) The cells were incubated at 37° C. under humidified air containing 5% CO2 for 48 hrs. […] Cell numbers were determined with a Coulter counter.

HUVE cells [5] = assay: VEGF-induced proliferation of HUVE cells; assay type: cell-based, human; conditions: for VEGF Cell No.: VEGF 5 ng/ml, 48 hrs, 0 μM: 45100 ± 200
Procedure: as §1

HUVE cells [6] = assay: bFGF-induced proliferation of HUVE cells (neomycin dose series); assay type: cell-based, human; conditions: for bFGF Cell No.: bFGF 10 ng/ml, 48 hrs, 0 μM: 59600 ± 2600
Procedure: as §1

Human angiogenin = target: T1, Human angiogenin (Homo sapiens, UniProt P03950); assay: Ribonucleolytic activity of angiogenin, yeast tRNA substrate; assay type: biochemical
T1 construct: made in house; host or cells: Escherichia coli
Procedure: After incubation for 2 hr at 37° C., […] of 3.4% ice-cold perchloric acid was added, the mixture was vortexed, kept on ice for […] and centrifuged at 15,000×g for 10 min at 4° C. The absorbance of the supernatants was measured at 260 nm.

[7] = system: MDA-MB-435 human breast tumor cells; assay type: in vivo
Procedure: MDA-MA-435 human breast tumor cells, which are estrogen receptor negative, were injected directly into the mammary fat pad of athymic mice. Age-matched athymic female mice were assigned to treatment groups of 8 mice each and anesthetized with ketamine (212 mg/kg body weight) and xylazine (21.2 mg/kg body weight) given intraperitoneally and allowed to stabilize under anesthesia for 15 min. A heating pad was used to maintain their body temperature throughout the procedure to minimize stress. Betadine followed by 70% alcohol was swabbed onto the skin of the left lateral thorax. An incision of 6 mm in length was made through the skin in the area of the left lateral thorax behind the left front leg and the mammary fat pad was exposed by using gentle pressure with two fingers to separate the skin at the incision site. MDA-MB-435 human breast tumor cells were harvested by trypsinization, washed in HBSS, counted using trypan blue exclusion to determine cell viability, and 10,000 cells in a total volume of 20 μl were injected into the fat pad using a 27 gauge needle. The incision was closed with 2 drops of Vetbond veterinarian tissue adhesive and the mouse was allowed to recover on the heating pad before returning to its cage. […] Mice were examined daily for tumor growth by gentle palpation of the lateral left thorax in the general area of the injection.

T1 sequence (P03950 with tags, fused parts or gaps): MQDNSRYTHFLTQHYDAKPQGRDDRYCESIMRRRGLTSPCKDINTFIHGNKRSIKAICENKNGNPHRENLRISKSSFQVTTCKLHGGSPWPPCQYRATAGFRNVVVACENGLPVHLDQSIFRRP

In the case of neomycin, the “% Inhibition of angiogenic activity” value ([1]; VEGF 10 ng + neomycin 200 ng) is reported as 10%, the Positive eggs ([1]; VEGF 10 ng + neomycin 200 ng, 24 total eggs) is reported as 14 and the “% Positive” value ([1]; VEGF 10 ng + neomycin 200 ng) is reported as 58%. For the same substance, the “% Inhibition of angiogenic activity” value ([1]; VEGF 10 ng + neomycin 1000 ng) was 24%, the “% Positive” value ([1]; VEGF 10 ng + neomycin 1000 ng (1 μg)) was 52% and the Positive eggs ([1]; VEGF 10 ng + neomycin 1000 ng, 27 total eggs) was 14. For the same substance, the “inhibition of angiogenic activity of VEGF on the CAM” value ([1]; VEGF 10 ng, neomycin 200 ng and 1 μg) was “did not significantly inhibit; also recorded: not significantly inhibited”, the “reduction of angiogenic activity of VEGF on the CAM” value ([1]; dosage as high as 900 ng per embryo) was “did not significantly reduce” and the IC50 (HUVE cells [2]; HUVE cells, angiogenin 1 μg/ml, 48 hr, read-out: IC50, angiogenin-induced EC proliferation) was ~10 µM and < 10 µM. For the same substance, the Cell number (HUVE cells [2]; aminoglycoside 100 μM, with angiogenin 1 μg/ml, none: 62,500 ± 100) was 53,400 ± 1,900, the Cell number (HUVE cells [2]; aminoglycoside 100 μM, without angiogenin, none: 52,000 ± 100) was 52,700 ± 700 and the “percent of cell number in the presence of 1 μg/ml angiogenin relative to the corresponding control” value (HUVE cells [2]; aminoglycoside 100 μM, none: 120) was 101%. For the same substance, the “inhibition of proliferative activity of angiogenin” value (HUVE cells [2]; neomycin 5 μM, angiogenin 1 μg/ml, 48 hr) was 49%, the “inhibition of angiogenin-induced cell proliferation” value (HUVE cells [2]; neomycin 25 μM, angiogenin 1 μg/ml, 48 hr) was 69% and the “angiogenin-induced cell proliferation” value (HUVE cells [2]; neomycin 50 μM, angiogenin 1 μg/ml, 48 hr) was “completely abolished”. For the same substance, the “effect of neomycin alone on cell proliferation” value (HUVE cells [2]; no angiogenin, 48 hr) was “neither induced nor inhibited cell proliferation”, the “mice in which appearance of PC-3 tumors was prevented” value ([3]; 20 mg/kg body weight s.c., 6 times per week 20 days, then 4 times per week 30 days, 6 mice) was 50% and the “tumor status of treated mice by day 18” value ([3]; 20 mg/kg s.c., control 2 of 6 with tumor) was “all of the mice in the neomycin-treated group remained tumor-free”. The “animals that had developed tumors as of day 42” value ([3]; 20 mg/kg s.c., control 100%) was 50%, the “Control Cell No.” value (HUVE cells [4]; neomycin 25 μM) was 29800 ± 300 and the “Control Cell No.” value (HUVE cells [4]; neomycin 50 μM) was 28800 ± 1000. The “Control Cell No.” value (HUVE cells [4]; neomycin 100 μM) was 27900 ± 500, the “Control Cell No.” value (HUVE cells [4]; neomycin 150 μM) was 27400 ± 200 and the “Control Cell No.” value (HUVE cells [4]; neomycin 200 μM) was 26300 ± 400. The “VEGF Inhib. % of cell proliferation” value (HUVE cells [5]; neomycin 25 μM) was 14%, the “VEGF Cell No.” value (HUVE cells [5]; neomycin 25 μM) was 41000 ± 300 and the “VEGF Inhib. % of cell proliferation” value (HUVE cells [5]; neomycin 50 μM) was 20%. For the same substance, the “VEGF Cell No.” value (HUVE cells [5]; neomycin 50 μM) was 38900 ± 1300, the “VEGF Inhib. % of cell proliferation” value (HUVE cells [5]; neomycin 100 μM) was 22% and the “VEGF Cell No.” value (HUVE cells [5]; neomycin 100 μM) was 36400 ± 400. The “VEGF Inhib. % of cell proliferation” value (HUVE cells [5]; neomycin 150 μM) was 36%, the “VEGF Cell No.” value (HUVE cells [5]; neomycin 150 μM) was 35000 ± 200 and the “VEGF Inhib. % of cell proliferation” value (HUVE cells [5]; neomycin 200 μM) was 34%. The “VEGF Cell No.” value (HUVE cells [5]; neomycin 200 μM) was 33800 ± 200, the “bFGF Inhib. % of cell proliferation” value (HUVE cells [6]; neomycin 25 μM) was 19% and the “bFGF Cell No.” value (HUVE cells [6]; neomycin 25 μM) was 51500 ± 700. The “bFGF Inhib. % of cell proliferation” value (HUVE cells [6]; neomycin 50 μM) was 34%, the “bFGF Cell No.” value (HUVE cells [6]; neomycin 50 μM) was 45900 ± 1200 and the “bFGF Inhib. % of cell proliferation” value (HUVE cells [6]; neomycin 100 μM) was 41%. The “bFGF Cell No.” value (HUVE cells [6]; neomycin 100 μM) was 42600 ± 200, the “bFGF Inhib. % of cell proliferation” value (HUVE cells [6]; neomycin 150 μM) was 49% and the “bFGF Cell No.” value (HUVE cells [6]; neomycin 150 μM) was 39900 ± 125. For the same substance, the “bFGF Inhib. % of cell proliferation” value (HUVE cells [6]; neomycin 200 μM) was 64%, the “bFGF Cell No.” value (HUVE cells [6]; neomycin 200 μM) was 34600 ± 400 and the IC50 (HUVE cells [6]; read-out: IC50, bFGF-induced proliferation of endothelial cells) was ~100 µM. The “ribonucleolytic activity of angiogenin, % of control” value (Human angiogenin; neomycin 5 μM) was 87%, the “ribonucleolytic activity of angiogenin, % of control” value (Human angiogenin; neomycin 10 μM) was 105% and the “ribonucleolytic activity of angiogenin, % of control” value (Human angiogenin; neomycin 50 μM) was 88%. For the same substance, the “establishment of MDA-MB-435 human breast tumors” value ([7]; 60 mg/kg body weight i.p., daily 20 days, then 4 times per week 42 days, 8 mice) was “completely inhibited the establishment” and the “mice with tumors by day 56” value ([7]; 60 mg/kg i.p., all 8 control mice developed tumors) was “none of the mice had tumors”.
